Consider 9 compounds from paper PMC6272674, “Selected Compounds Structurally Related to Acyclic Sesquiterpenoids and Their Antibacterial and Cytotoxic Activity” (Molecules, 2015).

Data set [1] has as its system Klebsiella pneumoniae ATCC 700603. Further details: method as in doi:10.1002/ffj.3238. Conditions: data presented by the authors before; cited from earlier work.
A short description of data set [2]: MTT viability, HaCaT. In kind it is cell-based, human. The note with it: human, HaCaT keratinocytes, 1000 µM (IC50 exceeded 1000 µM), read-out: viability ± standard deviation at 1000 µM. Summed up:
(§1)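 Assay used 24 h compound treatment of cells plated at 1 × 10^4 cells/100 µL, followed by 4 h MTT and A570 reading after SDS/DMF lysis; results reported relative to untreated control.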

Data set [3] can be described thus: MTT viability, MEWO. Format: cell-based, human. Conditions: human, MEWO malignant melanoma cells, 1000 µM (IC50 exceeded 1000 µM), read-out: viability ± standard deviation at 1000 µM. Summed up: as §1
Data set [4] has as its system Escherichia coli ATCC 25922. On the set-up: method as in doi:10.1002/ffj.3238. Conditions: data presented by the authors before; cited from earlier work.
Data set [5] relates to Staphylococcus aureus ATCC 43300. On the set-up: method as in doi:10.1002/ffj.3238. Conditions: data presented by the authors before; cited from earlier work.
The nature of data set [6]: MTT viability, HFIG. Format: cell-based, human. The note with it: human, HFIG (HFIB-G) gingival fibroblasts, 1000 µM (IC50 exceeded 1000 µM), read-out: viability ± standard deviation at 1000 µM. The procedure, abridged: as §1
Data set [7] is described as follows: MTT viability, IEC6. Format: cell-based. The note with it: rat, IEC-6 small intestine epithelial cells, 1000 µM (IC50 exceeded 1000 µM), read-out: viability ± standard deviation at 1000 µM. Summed up:
as §1

A short description of data set [8]: MTT viability, HL-60. Conditions: human, HL-60 promyelocytic leukaemia cells, HL-60, MTT, 1000 µM (IC50 exceeded 1000 µM), read-out: viability ± standard deviation at 1000 µM. Format: cell-based, human. Summed up: (§2)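 Viability is given as the optical density ratio of treated to control wells after 24 h compound treatment at 37 °C. Formazan from a 4 h MTT incubation is solubilised with SDS/DMF and measured at 570 nm.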

In data set [9] the test system is Enterococcus faecium ATCC 35667. On the set-up: method as in doi:10.1002/ffj.3238. Conditions: data presented by the authors before; cited from earlier work.
In data set [10] the test system is Enterococcus faecalis ATCC 51299. On the set-up: method as in doi:10.1002/ffj.3238. The note with it: data presented by the authors before; cited from earlier work.
Data set [11] has as its system Acinetobacter baumannii ATCC 19606. Further details: method as in doi:10.1002/ffj.3238. The note with it: data presented by the authors before; cited from earlier work.
Data set [12] can be described thus: MTT viability, HT29. In kind it is cell-based, human. Conditions: human, HT29 colorectal adenocarcinoma cells, 1000 µM (IC50 exceeded 1000 µM), read-out: viability ± standard deviation at 1000 µM. Summed up: as §1
The test system of data set [13] is Promyelocytic Leukaemia HL-60. Briefly: MTT viability, HL-60. Format: cell-based, human. Conditions: Homo sapiens, HL-60, 24 h, HL-60, MTT, range 10–1000 µM, read-out: half maximal inhibitory concentration (IC50), interpolated. Summed up: as §2
In data set [14] the test system is human melanoma MDA/MB‑435 cell lines. Further details: method as in PMID 19084293. The note with it: cited from earlier work.
In data set [15] the test system is colon carcinoma HCT-8 cells. Further details: method as in PMID 19084293. The note with it: cited from earlier work.

As usually defined, the viability is a read-out of living cells in per cent, often relative to untreated cells. For `CC(=O)CCC=C(C)C(C)CCC=C(C)C` (centres unmarked) [Compound 6], the “Minimum Inhibitory Concentrations MIC” value in data set [1] is listed as 14 µg/mL; in data set [4] it was 14 µg/mL; in data set [5], 26 µg/mL; in data set [9] it was 16 µg/mL; in [10], 18 µg/mL; in [11], 12 µg/mL. The viability at 24 h, 1000 µM was 118% in data set [2]; 102% in [3]; 83% in data set [6]; 95% in data set [7]; 67% in data set [8]; 102% in data set [12].

On to `CC(=O)CCC=CC(C)CCC=C(C)C` (centres unmarked) [Compound 7], for which the “Minimum Inhibitory Concentrations MIC” value is 16 µg/mL in [1]; 16 µg/mL in data set [4]; 26 µg/mL in data set [5]; 18 µg/mL in data set [9]; 16 µg/mL in data set [10]; 14 µg/mL in data set [11]. Moreover, the viability at 24 h, 1000 µM in [2] amounted to 101%; in data set [3], 99%; in data set [6], 92%; in data set [7], 82%; in data set [8], 67%; in [12], 98%.

Turning to `CC(=O)CCC=C(C)C(C)CCCC(C)C` (centres unmarked) [Compound 8], the “Minimum Inhibitory Concentrations MIC” value is given as 18 µg/mL in data set [1]; 18 µg/mL in [4]; 38 µg/mL in data set [5]; 28 µg/mL in data set [9]; 26 µg/mL in data set [10]; 22 µg/mL in data set [11]. Besides, the viability at 24 h, 1000 µM in data set [2] turned out to be 90%; in data set [3], 94%; in data set [6], 81%; in data set [7], 97%; in data set [8], 72%; in [12], 111%.

`CC(=O)CCC=C(C)CC(C)CCC=C(C)C` (centres unmarked) [Compound 9]: the “Minimum Inhibitory Concentrations MIC” value in [1] is recorded as 18 µg/mL; in data set [4] it was 28 µg/mL; in [5], 28 µg/mL; in [9] it was 14 µg/mL; in [10] it was 18 µg/mL; in data set [11] it was 16 µg/mL. For the same compound, the viability at 24 h, 1000 µM in data set [2] stood at 89%; in data set [3] it was 83%; in data set [6], 85%; in data set [7], 76%; in [8], 69%; in [12], 107%.

For the compound `CC(=O)CCC=C(C)CCC(C)CCC=C(C)C` (centres unmarked) [Compound 10], the “Minimum Inhibitory Concentrations MIC” value is listed as 18 µg/mL in data set [1]; 32 µg/mL in data set [4]; 46 µg/mL in data set [5]; 18 µg/mL in [9]; 26 µg/mL in [10]; 16 µg/mL in data set [11]. Further, the viability at 24 h, 1000 µM in data set [2] was 112%; in [3] it was 93%; in [6], 98%; in [7] it was 78%; in data set [8], 62%; in data set [12], 103%.

Take `CC(=O)CCC=C(C)C(C)CC(C)CCC=C(C)C` (centres unmarked) [Compound 11]: the “Minimum Inhibitory Concentrations MIC” value in [1] is on record as 28 µg/mL; in [4], 28 µg/mL; in data set [5] it was 26 µg/mL; in [9], 18 µg/mL; in [10], 22 µg/mL; in data set [11], 14 µg/mL. The viability at 24 h, 1000 µM is 100% in data set [2]; 112% in data set [3]; 102% in data set [6]; 81% in [7]; 59% in [8]; 92% in [12].

For `C=CC(C)(O)C(C)CC(C)CCC=C(C)C` (centres unmarked) [Compound 17], the “Minimum Inhibitory Concentrations MIC” value in data set [1] is listed as 18 µg/mL; in data set [4] it was 46 µg/mL; in data set [5] it was 48 µg/mL; in data set [9] it was 38 µg/mL; in [10] it was 38 µg/mL; in data set [11], 16 µg/mL. Moreover, the viability at 24 h, 1000 µM in [2] came out at 95%; in data set [3] it was 112%; in data set [6], 87%; in [7], 98%; in data set [12], 108%. Besides, in data set [13], the IC50 was determined as 750 µM.

Turning to `CC(=O)CCC=C(C)CCC=C(C)C` [Geranyl acetone (1), geranyl acetone, reference compound], the “Minimum Inhibitory Concentrations MIC” value in data set [1] was 18 µg/mL; in data set [4], 26 µg/mL; in data set [5], 48 µg/mL; in data set [9], 28 µg/mL; in data set [10] it was 36 µg/mL; in data set [11], 18 µg/mL. The viability at 24 h, 1000 µM was 89% in data set [2]; 93% in [3]; 82% in data set [6]; 79% in [7]; 98% in [12]. In [13], the IC50 is approximately 295 µM.

Take `C=CC(C)(O)CC/C=C(\C)CCC=C(C)C` (centres unmarked) [Nerolidol (2), nerolidol, reference compound]: the toxicity entry in data set [14] and in [15] was “no toxicity” throughout. Also, the “Minimum Inhibitory Concentrations MIC” value in data set [1] was 16 µg/mL; in data set [4], 46 µg/mL; in data set [5], 48 µg/mL; in data set [9], 32 µg/mL; in [10], 38 µg/mL; in [11], 26 µg/mL. The viability at 24 h, 1000 µM in [2] is 102 ± 5%; in [3], 99%; in data set [6], 75%; in data set [7] it was 76%; in [12], 103%. Further, in data set [13], the IC50 was approximately 135 µM.
